Experimental data taken from patent US20240216354A1, “IMMUNOMODULATORY IMIDE DRUGS AS ZETA-CHAIN-ASSOCIATED PROTEIN KINASE 70 (ZAP70) AGONISTS AND USES THEREOF” (Dana-Farber Cancer Institute, Inc., priority 2019, published 2024).

Columns and labels:
Assay type in all cases: cell-based
Zap-70 [1] = biological target: T1, Zap-70 (Homo sapiens, UniProt P43403); assay: Immunoblotting of p-Zap-70 in KHYG-1 NK cell line; details: KHYG-1 cells, pomalidomide 0.25-1 μM, 24 h
T1 sequence (P43403 1-619): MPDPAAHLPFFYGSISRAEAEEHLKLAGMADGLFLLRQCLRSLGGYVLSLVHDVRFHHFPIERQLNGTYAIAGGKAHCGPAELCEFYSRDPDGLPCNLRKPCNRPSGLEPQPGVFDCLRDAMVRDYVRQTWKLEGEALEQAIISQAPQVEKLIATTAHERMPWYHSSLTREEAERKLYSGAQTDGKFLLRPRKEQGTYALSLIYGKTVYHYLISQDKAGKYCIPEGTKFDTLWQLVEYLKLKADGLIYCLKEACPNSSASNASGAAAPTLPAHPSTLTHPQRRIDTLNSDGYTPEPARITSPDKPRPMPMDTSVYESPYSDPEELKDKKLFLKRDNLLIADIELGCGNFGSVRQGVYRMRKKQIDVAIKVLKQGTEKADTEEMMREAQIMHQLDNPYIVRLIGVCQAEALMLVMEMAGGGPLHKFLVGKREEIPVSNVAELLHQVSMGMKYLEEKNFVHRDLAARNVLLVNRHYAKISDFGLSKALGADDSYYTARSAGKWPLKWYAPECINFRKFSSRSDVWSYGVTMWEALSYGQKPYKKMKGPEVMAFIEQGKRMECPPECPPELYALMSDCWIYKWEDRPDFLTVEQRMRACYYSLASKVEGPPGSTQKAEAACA
Method: KHYG-1 cells were cultured with pomalidomide (0.25-1 μM) for 24 h. (A) Whole cell lysates were subjected to immunoblotting using indicated Abs. (B) KHYG-1 cells were incubated with calcein-AM-stained U266 cells for 4 h at the indicated effector/target (E/T) ratios. Percent specific lysis was calculated as described previously. (C) KHYG-1 cells were transfected with Scsi or Zap-70si, and then cultured with pomalidomide (0.25 μM) for 72 h in the absence of IL-2. Viable cell number was determined, and cells were then incubated with calcein AM-labeled U266 target cells for 4 h at indicated effector/target (E/T) ratios. Percent specific lysis was calculated as described previously. (D) After transfection with Scsi or Zap-70si, cells were cultured with lenalidomide or pomalidomide for 72 h. Cell growth was assessed by MTT assay. (E) KHYG-1 cells were transfected with scrambled (Scsi) or CRBNsi. The transfectants were then cultured with pomalidomide (0.5 μM) for 24 h, and whole cell lysates were subjected to immunoblotting using indicated Abs. The arrow indicates CRBN expression. (F) Primary NK cells (#1, #2, #3, #4) were isolated from healthy volunteer's PBMCs, as described in Materials and Methods. NK cells were cultured with pomalidomide (0.5 μM) for 24 h, and whole cell lysates were subjected to immunoblotting using indicated Abs. […] Percent specific lysis was calculated as previously described.

Zap-70 [2] = biological target: T1, Zap-70; assay: Immunoblotting of p-Zap-70 in NK-92 cells; details: 24 h, Pom 0.5 and 1 μM, CC-220 0.01, 0.1, 1 μM
Method: (A) NK-92 cells were cultured with Pom (0.5 and 1 μM) for 24 h. Whole cell lysates were subjected to immunoblotting using indicated Abs. (B) NK-92 cells were cultured with Pom (0.5 and 1 μM) for 48 h. The cells were subsequently incubated with calcein-AM-stained U266 cells for 4 h at the indicated effector/target (E/T) ratios. Percent specific lysis was calculated as described previously. (C) NK-92 cells were cultured with Pom (0.03-3 μM) for 72 h. Cell growth was assessed by MTT assay. (D) NK-92 cells were transfected with scrambled (Sc) or Zap-70 siRNA (Zap70si). After 72 h incubation, cell viability was measured by trypan-blue dye exclusion. For B, C, and D, data are representative of at least two independent experiments, and values are expressed in mean±SD.
(A) NK-92 cells were cultured with Len (1 μM), Pom (0.01, 0.1, 1 μM) or CC-220 (0.01, 0.1, 1 μM) for 24 h. Whole cell lysates were subjected to immunoblotting using indicated Abs. (B) NK-92 cells were cultured with Pom (0.1 and 1 μM) or CC-220 ([…]) for 48 h. NK cell activity was measured by incubation with calcein AM-labeled U266 cells for 4 h at E/T ratio of 2.5/1. Percent specific lysis was calculated as previously described. Data are representative of three independent experiments, and values are expressed in mean±SD. *: p<0.01.

U266 cells = assay: KHYG-1 NK cell cytotoxicity against calcein-AM-labeled U266 cells; details: KHYG-1 cells, pomalidomide 0.25-1 μM 24 h, then 4 h with U266 at indicated E/T ratios
Method: KHYG-1 cells were cultured with pomalidomide (0.25-1 μM) for 24 h. (A) Whole cell lysates were subjected to immunoblotting using indicated Abs. (B) KHYG-1 cells were incubated with calcein-AM-stained U266 cells for 4 h at the indicated effector/target (E/T) ratios. Percent specific lysis was calculated as described previously. (C) KHYG-1 cells were transfected with Scsi or Zap-70si, and then cultured with pomalidomide (0.25 μM) for 72 h in the absence of IL-2. Viable cell number was determined, and cells were then incubated with calcein AM-labeled U266 target cells for 4 h at indicated effector/target (E/T) ratios. Percent specific lysis was calculated as described previously. […] Cell growth was assessed by MTT assay. […] Percent specific lysis was calculated as previously described.
(A) KHYG-1 cells were transfected with Scsi or CRBNsi. […] Cells were counted and incubated with calcein AM-labeled U266 for 4 h at indicated effector/target (E/T) ratios.
(A, B) KHYG-1 cells were transfected with scrambled (Sc) or Zap-70 siRNAs, and then cultured for 72 h with lenalidomide (0.5 μM), in the absence of IL-2 (A) The viable cell number was measured by trypan-blue dye exclusion. […] Percent specific lysis was calculated as described previously. *: p<0.01 compared with Scsi.
KHYG-1 cells were transfected with scrambled (Sc) or IKZF3 siRNAs. […] Percent specific lysis was calculated as previously described. […]

Nc1cccc2c1C(=O)N(C1CCC(=O)NC1=O)C2=O (stereo not drawn) [pomalidomide]
p-Zap-70 (immunoblotting) (Zap-70 [1]): similarly enhanced p-Zap-70 in KHYG-1 cells
p-Zap-70 (immunoblotting) (Zap-70 [2]): induced increased p-Zap70
cytotoxicity against U266 cells (percent specific lysis) (U266 cells): increased their cytotoxicity against U266 cells in a dose-dependent fashion
